Reference: ChEMBL document CHEMBL5365529, “Construction and Evaluation of Novel Dual-function Antifungal Inhibitors and Covalent Organic Framework Carriers Based on the Infection Microenvironment” (J Med Chem, 2023)
≈ marks a conversion by molar mass, not a printed value. Calls of active or inactive are those of the source. The calls are words filed in the database; no cut-off is given here.

Key:
Candida albicans [1] = assay: Induction of morphological changes in Candida albicans SC5314 assessed as leakage of cell contents measured for 96 to 144 hrs by TEM analysis; assay type: functional, organism-based; conditions: time 96-144 hrs
[2] = Toxicity in BALB/c mouse infected with Candida albicans 901 assessed as pathological change in spleen at 0.5 ug/g administered 6 times measured after 4 days by H and E staining based analysis; assay type: tissue-based; conditions: in vivo, 96 h, dose 0.5 µg/g, time 4 day
Candida tropicalis = assay: Antifungal activity against Candida tropicalis ATCC 1369 assessed as fungal growth inhibition incubated for 72 hrs by CLSI based susceptibility test; assay type: functional
Candida albicans [3] = assay: Antifungal activity against FLC-resistant Candida albicans 17# assessed as fungal growth inhibition incubated for 72 hrs by CLSI based susceptibility test; assay type: functional
Candida albicans [4] = assay: Induction of morphological changes in Candida albicans SC5314 assessed as decrease in cell wall thickness measured after 48 hrs by TEM analysis; assay type: functional, organism-based
[5] = target: Lanosterol 14-alpha demethylase (Candida albicans (strain SC5314 / ATCC MYA-2876) (Yeast), UniProt P10613); assay: Inhibition of CYP51 in Candida albicans SC5314 assessed as unknown sterol level at 4 ug/ml incubated for 16 hrs by GC-MS analysis (reference value: 5.35 %); parameters: scale not given: the % may be the effect or the level left; conditions: at 4 µg/mL
Candida albicans [6] = assay: Antifungal activity against Candida albicans 901 infected in BALB/c mouse assessed as decrease in collagen fiber content at 0.5 ug/g administered 6 times measured after 4 days by Masson staining based analysis; assay type: functional, organism-based; conditions: dose 0.5 µg/g, time 4.0 day
Candida albicans [7] = assay: Induction of immunity in BALB/c mouse infected with Candida albicans 901 assessed as increase in CD8 positive level at 0.5 ug/g administered 6 times measured after 4 days by IHC analysis; assay type: functional, organism-based; conditions: dose 0.5 µg/g, time 4.0 day
Candida albicans [8] = assay: Induction of mitochondrial membrane depolarization in Candida albicans SC5314 by JC-1 staining based flow cytometry (reference value: 12.51 %); assay type: functional
[9] = target: T1, Programmed cell death 1 ligand 1 (Homo sapiens, UniProt Q9NZQ7); assay: Inhibition of human PD-L1 incubated for 15 mins by ELISA method
Mus musculus [10] = assay: Antiinflammatory activity in BALB/c mouse infected with Candida albicans 901 assessed as decrease in COX-2 level at 0.5 ug/g administered 6 times measured after 4 days by IHC analysis; assay type: functional, organism-based; conditions: dose 0.5 µg/g, time 4.0 day
Candida albicans [11] = assay: Antifungal activity against Candida albicans 901 infected in BALB/c mouse assessed as repair of tissue damage at 0.5 ug/g administered 6 times measured after 4 days by Masson staining based analysis; assay type: functional, organism-based; conditions: dose 0.5 µg/g, time 4.0 day
[12] = Toxicity in BALB/c mouse infected with Candida albicans 901 assessed as plasma AST level at 0.5 ug/g administered 6 times measured after 4 days (reference value: 50.6 +/- 2.3 IU/L); conditions: in vivo, 96 h, dose 0.5 µg/g, time 4 day
[13] = Toxicity in BALB/c mouse infected with Candida albicans 901 assessed as pathological change in kidney at 0.5 ug/g administered 6 times measured after 4 days by H and E staining based analysis; assay type: tissue-based; conditions: in vivo, 96 h, dose 0.5 µg/g, time 4 day
Candida albicans [14] = assay: Induction of immunity in BALB/c mouse infected with Candida albicans 901 assessed as increase in CD3 positive level at 0.5 ug/g administered 6 times measured after 4 days by IHC analysis; assay type: functional, organism-based; conditions: dose 0.5 µg/g, time 4.0 day
[15] = Drug uptake in Candida albicans SC5314 assessed as increase in green fluorescence by imaging analysis; assay type: ADME
Candida albicans [16] = assay: Antifungal activity against FLC-resistant Candida albicans 901 assessed as fungal growth inhibition incubated for 72 hrs by CLSI based susceptibility test; assay type: functional
[17] = Drug uptake in Candida albicans SC5314 assessed as increase in red fluorescence by PI staining based imaging analysis; assay type: ADME
Candida albicans [18] = assay: Antifungal activity against Candida albicans 901 infected in BALB/c mouse assessed as disappearance of nuclear aggregation in lesion at 0.5 ug/g administered 6 times measured after 4 days by H and E staining based analysis; assay type: functional, organism-based; conditions: dose 0.5 µg/g, time 4.0 day
Nakaseomyces glabratus = assay: Antifungal activity against Candida glabrata assessed as fungal growth inhibition incubated for 72 hrs by CLSI based susceptibility test; assay type: functional
Candida albicans [19] = assay: Induction of morphological changes in Candida albicans SC5314 assessed as necrotic cellular debris measured for 96 to 144 hrs by TEM analysis; assay type: functional, organism-based; conditions: time 96-144 hrs
Cryptococcus neoformans = assay: Antifungal activity against Cryptococcus neoformans ZKCC 2209 assessed as fungal growth inhibition incubated for 72 hrs by CLSI based susceptibility test; assay type: functional
Mus musculus [20] = assay: Antiinflammatory activity in BALB/c mouse infected with Candida albicans 901 assessed as decrease in IL-2 level at 0.5 ug/g administered 6 times measured after 4 days by IHC analysis; assay type: functional, organism-based; conditions: dose 0.5 µg/g, time 4.0 day
Candida albicans [21] = assay: Antifungal activity against Candida albicans 901 infected in BALB/c mouse assessed as inhibition of fungal proliferation at 0.5 ug/g administered 6 times measured after 4 days by Masson staining based analysis; assay type: functional, organism-based; conditions: dose 0.5 µg/g, time 4.0 day
[22] = Toxicity in BALB/c mouse infected with Candida albicans 901 assessed as pathological change in heart at 0.5 ug/g administered 6 times measured after 4 days by H and E staining based analysis; assay type: tissue-based; conditions: in vivo, 96 h, dose 0.5 µg/g, time 4 day
Candida albicans [23] = assay: Antifungal activity against FLC-resistant Candida albicans 632 assessed as fungal growth inhibition incubated for 72 hrs by CLSI based susceptibility test; assay type: functional
[24] = target: T1, Programmed cell death 1 ligand 1; assay: Binding affinity to PD-L1 (unknown origin) immobilized on carboxy chip assessed as dissociation constant by SPR analysis
Candida albicans [25] = assay: Induction of morphological changes in Candida albicans SC5314 assessed as accumulation of low-density granules measured for 96 to 144 hrs by TEM analysis; assay type: functional, organism-based; conditions: time 96-144 hrs
Candida albicans [26] = assay: Antifungal activity against Candida albicans 901 infected in BALB/c mouse assessed as restoration of infected tissue morphology at 0.5 ug/g administered 6 times measured after 4 days by H and E staining based analysis; assay type: functional, organism-based; conditions: dose 0.5 µg/g, time 4.0 day
[27] = Toxicity in BALB/c mouse infected with Candida albicans 901 assessed as plasma ALT level at 0.5 ug/g administered 6 times measured after 4 days (reference value: 30.4 +/- 4.6 IU/L); conditions: in vivo, 96 h, dose 0.5 µg/g, time 4 day
Candida albicans [28] = assay: Antifungal activity against FLC-resistant Candida albicans 904 assessed as fungal growth inhibition incubated for 72 hrs by CLSI based susceptibility test; assay type: functional
Candida albicans [29] = assay: Antifungal activity against Candida albicans 901 infected in BALB/c mouse assessed as appearance of necrotic cell fragments in interstitial space at 0.5 ug/g administered 6 times measured after 4 days by H and E staining based analysis; assay type: functional, organism-based; conditions: dose 0.5 µg/g, time 4.0 day
[30] = Toxicity in BALB/c mouse infected with Candida albicans 901 assessed as toxic side effects at 0.5 ug/g administered 6 times measured after 4 days; conditions: in vivo, 96 h, dose 0.5 µg/g, time 4 day
Candida albicans [31] = assay: Induction of apoptosis in Candida albicans SC5314 assessed as necrotic cells incubated for 48 hrs by annexin V-FITC/PI staining based flow cytometry (reference value: 2.12 %); assay type: functional
Candida albicans [32] = assay: Antifungal activity against FLC-resistant Candida albicans CaR assessed as fungal growth inhibition incubated for 72 hrs by CLSI based susceptibility test; assay type: functional
Mus musculus [33] = assay: Antiinflammatory activity in BALB/c mouse infected with Candida albicans 901 assessed as decrease in INF-gamma level at 0.5 ug/g administered 6 times measured after 4 days by IHC analysis; assay type: functional, organism-based; conditions: dose 0.5 µg/g, time 4.0 day
Aspergillus fumigatus = assay: Antifungal activity against Aspergillus fumigatus KM8001 assessed as fungal growth inhibition incubated for 72 hrs by CLSI based susceptibility test; assay type: functional

T1 sequence (Q9NZQ7 whole entry): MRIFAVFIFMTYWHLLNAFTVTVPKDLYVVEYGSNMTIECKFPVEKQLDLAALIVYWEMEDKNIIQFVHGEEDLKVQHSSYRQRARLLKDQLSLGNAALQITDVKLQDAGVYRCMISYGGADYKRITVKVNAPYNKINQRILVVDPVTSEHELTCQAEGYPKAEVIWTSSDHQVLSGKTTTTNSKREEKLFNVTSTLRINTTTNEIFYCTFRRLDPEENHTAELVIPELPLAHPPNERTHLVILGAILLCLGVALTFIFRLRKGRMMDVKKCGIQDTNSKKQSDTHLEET
Sequence of Lanosterol 14-alpha demethylase (P10613 whole entry): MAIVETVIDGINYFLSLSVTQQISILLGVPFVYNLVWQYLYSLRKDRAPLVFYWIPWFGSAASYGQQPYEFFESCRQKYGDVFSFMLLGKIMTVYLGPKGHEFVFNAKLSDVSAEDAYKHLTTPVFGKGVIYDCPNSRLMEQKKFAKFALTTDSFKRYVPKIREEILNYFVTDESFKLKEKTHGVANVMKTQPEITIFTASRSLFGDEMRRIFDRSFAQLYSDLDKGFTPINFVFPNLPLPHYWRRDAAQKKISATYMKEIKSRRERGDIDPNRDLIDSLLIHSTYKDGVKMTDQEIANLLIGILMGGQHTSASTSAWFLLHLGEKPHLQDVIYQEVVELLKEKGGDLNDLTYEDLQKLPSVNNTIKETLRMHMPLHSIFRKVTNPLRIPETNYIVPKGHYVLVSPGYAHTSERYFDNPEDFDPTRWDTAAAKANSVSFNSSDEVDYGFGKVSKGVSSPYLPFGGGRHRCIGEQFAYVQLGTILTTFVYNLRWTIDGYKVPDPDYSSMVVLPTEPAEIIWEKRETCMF

COC(=O)[C@@H](Cn1cncn1)NCc1cccc(OCc2cccc(-c3ccccc3)c2C)c1
Activity (Candida albicans [1]): Active | Activity [2]: Non-Toxic | MIC50 (Candida tropicalis): 0.5 µg/mL (≈ 1.1 µM) | MIC50 (Candida albicans [3]): 4 µg/mL (≈ 8.76 µM) | Activity (Candida albicans [4]): Active | Activity [5]: 6.65% | Activity (Candida albicans [6]): Active | Activity (Candida albicans [7]): Active | Activity (Candida albicans [8]): 34.74% | IC50 [9]: 21 nM | Activity (Mus musculus [10]): Active | Activity (Candida albicans [11]): Active | Activity [12]: 57.4 IU/L | Activity [13]: Non-Toxic | Activity (Candida albicans [14]): Active | Drug uptake [15]: Active | MIC50 (Candida albicans [16]): 2 µg/mL (≈ 4.38 µM) | Drug uptake [17]: Active | Activity (Candida albicans [18]): Active | MIC50 (Nakaseomyces glabratus): 0.125 µg/mL (≈ 0.274 µM) | Activity (Candida albicans [19]): Active | MIC50 (Cryptococcus neoformans): 0.5 µg/mL (≈ 1.1 µM) | Activity (Mus musculus [20]): Active | inhibition (Candida albicans [21]): Active | Activity [22]: Non-Toxic | MIC50 (Candida albicans [23]): 4 µg/mL (≈ 8.76 µM) | Kd [24]: 15 nM | Activity (Candida albicans [25]): Active | Activity (Candida albicans [26]): Active | Activity [27]: 21.5 IU/L | MIC50 (Candida albicans [28]): 2 µg/mL (≈ 4.38 µM) | Activity (Candida albicans [29]): Active | Activity [30]: Non-Toxic | Activity (Candida albicans [31]): 25.91% | MIC50 (Candida albicans [32]): 2 µg/mL (≈ 4.38 µM) | Activity (Mus musculus [33]): Active | MIC50 (Aspergillus fumigatus): 2 µg/mL (≈ 4.38 µM)
